This assay concerns angiotensin II-induced contraction of isolated rabbit aorta rings. Nature of the assay: Inhibition of agonist-induced contraction, angiotensin II: inhibition of vascular contraction in isolated rabbit aorta rings in vitro. The following applies: based on the 3rd = submaximal agonist concentration, read-out: IC50 against contractions induced by AII. How it is done:
Rabbits of both sexes are stunned by a blow to the neck and bled out, or in some cases anesthetised with Nembutal (about 60-80 mg/kg i.v.) and sacrificed by opening the thorax. The thorax aorta is taken out, freed from adhering connective tissue, divided into 1.5 mm wide ring segments and individually transferred under an initial loading of about 3.5 g to 10 ml organ baths containing 95% O2 /5% CO2 -aerated Krebs-Henseleit nutrient solution temperature-controlled at 37° C. of the following composition: 119 mmol/l of NaCl; 2.5 mmol/l of CaCl2 ×2 H2 O; 1.2 mmol/l of KH2 PO4; 10 mmol/l of glucose; 4.8 mmol/l of KCl; 1.4 mmol/l of MgSO4 ×7 H2 O and 25 mmol/l of NaHCO3.
The contractions are measured isometrically by Statham UC2 cells by means of bridge amplifiers (ifd Mulheim or DSM Aalen) and digitalised and analysed by means of A/D convertors (System 570, Keithley Munich). Agonist dose response curves (DRC) were plotted hourly. With each DRC, 3 or 4 individual concentrations are applied to the baths at an interval of 4 min. […]
The height of the 3rd DRC in the normal case is used as a reference quantity for the evaluation of the test substance to be investigated in further passages, which is applied to the baths in the following DRCs in increasing dosage in each case at the start of the incubation time. […]

Turning to `CCCCc1cc(C(=O)O)cc(=O)n1Cc1ccc(S(=O)(=O)N2CCCC2C(=O)O)cc1Cl` (stereo not shown) [Example 6], the IC50 is 0.28 µM.

These data come from patent US5254543A, “Sulphonylbenzyl-substituted pyridones which are angiotension II receptor antagonists” (Bayer Aktiengesellschaft, priority 1992, dated 1993).
